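Where inhibition never reached the appropriate level, the endpoint shown equals the highest concentration tested. Otherwise, values were interpolated linearly from a five-concentration, 48-hour dose response in 96-well plates. GI50 marks 50% less growth. TGI denotes the concentration required for complete inhibition of growth.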
How the values were obtained:
Test in all cases: NCI-60 cell line screen, 48 h; in the data active means GI50 below about 0.43 µM; inactive means the rest
NCI-H522 lung = system: NCI-H522 lung
SNB-75 CNS = system: SNB-75 CNS
RXF-631 renal = system: RXF-631 renal
SK-MEL-5 melanoma = system: SK-MEL-5 melanoma
CCRF-CEM leukemia = system: CCRF-CEM leukemia
SW-620 colon = system: SW-620 colon
OVCAR-8 ovarian = system: OVCAR-8 ovarian
UACC-257 melanoma = system: UACC-257 melanoma
XF 498 CNS = system: XF 498 CNS
IGROV1 ovarian = system: IGROV1 ovarian
HL-60(TB) leukemia = system: HL-60(TB) leukemia
DLD-1 colon = system: DLD-1 colon
MALME-3M melanoma = system: MALME-3M melanoma
SF-539 CNS = system: SF-539 CNS
CAKI-1 renal = system: CAKI-1 renal
HOP-92 NSCLC = system: HOP-92 NSCLC
EKVX NSCLC = system: EKVX NSCLC
M14 melanoma = system: M14 melanoma
786-0 renal = system: 786-0 renal
MOLT-4 leukemia = system: MOLT-4 leukemia
U251 CNS = system: U251 CNS
DMS 114 small cell lung = system: DMS 114 small cell lung
LOX IMVI melanoma = system: LOX IMVI melanoma
OVCAR-4 ovarian = system: OVCAR-4 ovarian
COLO 205 colon = system: COLO 205 colon
SK-MEL-28 melanoma = system: SK-MEL-28 melanoma
ACHN renal = system: ACHN renal
SK-MEL-2 melanoma = system: SK-MEL-2 melanoma
OVCAR-3 ovarian = system: OVCAR-3 ovarian
SNB-19 CNS = system: SNB-19 CNS
DMS 273 small cell lung = system: DMS 273 small cell lung
NCI-H226 lung = system: NCI-H226 lung
SF-268 CNS = system: SF-268 CNS
RXF 393 renal = system: RXF 393 renal
TK-10 renal = system: TK-10 renal
UO-31 renal = system: UO-31 renal
SF-295 CNS = system: SF-295 CNS
RPMI-8226 leukemia = system: RPMI-8226 leukemia
HCC-2998 colon = system: HCC-2998 colon
HOP-62 NSCLC = system: HOP-62 NSCLC
SN12C renal = system: SN12C renal
HT29 colon = system: HT29 colon
M19-MEL melanoma = system: M19-MEL melanoma
SK-OV-3 ovarian = system: SK-OV-3 ovarian
OVCAR-5 ovarian = system: OVCAR-5 ovarian
UACC-62 melanoma = system: UACC-62 melanoma
NCI-H460 lung = system: NCI-H460 lung
A549 NSCLC = system: A549 NSCLC
LXFL 529 NSCLC = system: LXFL 529 NSCLC
KM12 colon = system: KM12 colon
HCT-15 colon = system: HCT-15 colon
K-562 leukemia = system: K-562 leukemia
SNB-78 CNS = system: SNB-78 CNS
A498 renal = system: A498 renal
HCT-116 colon = system: HCT-116 colon
HOP-18 NSCLC = system: HOP-18 NSCLC
NCI-H23 lung = system: NCI-H23 lung
KM20L2 colon = system: KM20L2 colon
SR leukemia = system: SR leukemia

CC(C)=NO.CC(C)=NO.CC(C)=NO.CC(C)=NO.[Ti]
inactive: GI50 (NCI-H522 lung) > 100 µM | GI50 (SNB-75 CNS) > 100 µM | GI50 (RXF-631 renal) > 100 µM | GI50 (SK-MEL-5 melanoma) > 100 µM | GI50 (CCRF-CEM leukemia) > 100 µM | GI50 (SW-620 colon) > 100 µM | GI50 (OVCAR-8 ovarian) > 100 µM | GI50 (UACC-257 melanoma) > 100 µM | GI50 (XF 498 CNS) > 100 µM | GI50 (IGROV1 ovarian) > 100 µM | GI50 (HL-60(TB) leukemia) > 100 µM | GI50 (DLD-1 colon) > 100 µM | GI50 (MALME-3M melanoma) > 100 µM | GI50 (SF-539 CNS) > 100 µM | GI50 (CAKI-1 renal) > 100 µM | GI50 (HOP-92 NSCLC) > 100 µM | GI50 (EKVX NSCLC) > 100 µM | GI50 (M14 melanoma) > 100 µM | GI50 (786-0 renal) > 100 µM | GI50 (MOLT-4 leukemia) > 100 µM | GI50 (U251 CNS) > 100 µM | GI50 (DMS 114 small cell lung) > 100 µM | GI50 (LOX IMVI melanoma) > 100 µM | GI50 (OVCAR-4 ovarian) > 100 µM | GI50 (COLO 205 colon) > 100 µM | GI50 (SK-MEL-28 melanoma) > 100 µM | GI50 (ACHN renal) > 100 µM | GI50 (SK-MEL-2 melanoma) > 100 µM | GI50 (OVCAR-3 ovarian) > 100 µM | GI50 (SNB-19 CNS) > 100 µM | GI50 (DMS 273 small cell lung) > 100 µM | GI50 (NCI-H226 lung) > 100 µM | GI50 (SF-268 CNS) > 100 µM | GI50 (RXF 393 renal) > 100 µM | GI50 (TK-10 renal) > 100 µM | GI50 (UO-31 renal) > 100 µM | GI50 (SF-295 CNS) > 100 µM | GI50 (RPMI-8226 leukemia) > 100 µM | GI50 (HCC-2998 colon) > 100 µM | GI50 (HOP-62 NSCLC) > 100 µM | GI50 (SN12C renal) > 100 µM | GI50 (HT29 colon) > 100 µM | GI50 (M19-MEL melanoma) > 100 µM | GI50 (SK-OV-3 ovarian) > 100 µM | GI50 (OVCAR-5 ovarian) > 100 µM | GI50 (UACC-62 melanoma) > 100 µM | GI50 (NCI-H460 lung) > 100 µM | GI50 (A549 NSCLC) > 100 µM | GI50 (LXFL 529 NSCLC) > 100 µM | GI50 (KM12 colon) > 100 µM | GI50 (HCT-15 colon) > 100 µM | GI50 (K-562 leukemia) > 100 µM | GI50 (SNB-78 CNS) > 100 µM
> 100 µM: TGI (NCI-H522 lung) | TGI (SNB-75 CNS) | TGI (RXF-631 renal) | TGI (SK-MEL-5 melanoma) | TGI (CCRF-CEM leukemia) | TGI (SW-620 colon) | TGI (OVCAR-8 ovarian) | TGI (UACC-257 melanoma) | TGI (XF 498 CNS) | TGI (IGROV1 ovarian) | TGI (HL-60(TB) leukemia) | TGI (DLD-1 colon) | TGI (MALME-3M melanoma) | TGI (SF-539 CNS) | TGI (CAKI-1 renal) | TGI (HOP-92 NSCLC) | TGI (EKVX NSCLC) | TGI (M14 melanoma) | TGI (786-0 renal) | TGI (MOLT-4 leukemia) | TGI (U251 CNS) | TGI (DMS 114 small cell lung) | TGI (LOX IMVI melanoma) | TGI (OVCAR-4 ovarian) | TGI (COLO 205 colon) | TGI (SK-MEL-28 melanoma) | TGI (ACHN renal) | TGI (SK-MEL-2 melanoma) | TGI (OVCAR-3 ovarian) | TGI (SNB-19 CNS) | TGI (DMS 273 small cell lung) | TGI (NCI-H226 lung) | TGI (SF-268 CNS) | TGI (RXF 393 renal) | TGI (TK-10 renal) | TGI (UO-31 renal) | TGI (SF-295 CNS) | TGI (RPMI-8226 leukemia) | TGI (HCC-2998 colon) | TGI (HOP-62 NSCLC) | TGI (SN12C renal) | TGI (HT29 colon) | TGI (M19-MEL melanoma) | TGI (SK-OV-3 ovarian) | TGI (OVCAR-5 ovarian) | TGI (UACC-62 melanoma) | TGI (NCI-H460 lung) | TGI (A549 NSCLC) | TGI (LXFL 529 NSCLC) | TGI (KM12 colon) | TGI (HCT-15 colon) | TGI (K-562 leukemia) | TGI (SNB-78 CNS)

CCOC(=O)C1=C(O)c2c(OC)ccc(OC)c2C(=O)C1=O
> 100 µM: TGI (NCI-H522 lung) | TGI (SNB-75 CNS) | TGI (SK-MEL-5 melanoma) | TGI (CCRF-CEM leukemia) | TGI (SW-620 colon) | TGI (OVCAR-8 ovarian) | TGI (A498 renal) | TGI (HCT-116 colon) | TGI (HOP-18 NSCLC) | TGI (UACC-257 melanoma) | TGI (XF 498 CNS) | TGI (IGROV1 ovarian) | TGI (HL-60(TB) leukemia) | TGI (DLD-1 colon) | TGI (MALME-3M melanoma) | TGI (SF-539 CNS) | TGI (CAKI-1 renal) | TGI (HOP-92 NSCLC) | TGI (EKVX NSCLC) | TGI (M14 melanoma) | TGI (786-0 renal) | TGI (MOLT-4 leukemia) | TGI (U251 CNS) | TGI (DMS 114 small cell lung) | TGI (NCI-H23 lung) | TGI (LOX IMVI melanoma) | TGI (OVCAR-4 ovarian) | TGI (COLO 205 colon) | TGI (SK-MEL-28 melanoma) | TGI (ACHN renal) | TGI (SK-MEL-2 melanoma) | TGI (OVCAR-3 ovarian) | TGI (SNB-19 CNS) | TGI (DMS 273 small cell lung) | TGI (NCI-H226 lung) | TGI (SF-268 CNS) | TGI (RXF 393 renal) | TGI (TK-10 renal) | TGI (UO-31 renal) | TGI (SF-295 CNS) | TGI (RPMI-8226 leukemia) | TGI (HCC-2998 colon) | TGI (HOP-62 NSCLC) | TGI (SN12C renal) | TGI (HT29 colon) | TGI (M19-MEL melanoma) | TGI (KM20L2 colon) | TGI (SK-OV-3 ovarian) | TGI (OVCAR-5 ovarian) | TGI (UACC-62 melanoma) | TGI (NCI-H460 lung) | TGI (A549 NSCLC) | TGI (KM12 colon) | TGI (HCT-15 colon) | TGI (K-562 leukemia) | TGI (SR leukemia) | TGI (SNB-78 CNS)

O=C(CO[N+](=O)[O-])OCC(=O)c1ccccc1
> 100 µM: TGI (NCI-H522 lung) | TGI (SNB-75 CNS) | TGI (RXF-631 renal) | TGI (CCRF-CEM leukemia) | TGI (SW-620 colon) | TGI (OVCAR-8 ovarian) | TGI (HCT-116 colon) | TGI (UACC-257 melanoma) | TGI (IGROV1 ovarian) | TGI (HL-60(TB) leukemia) | TGI (DLD-1 colon) | TGI (MALME-3M melanoma) | TGI (SF-539 CNS) | TGI (CAKI-1 renal) | TGI (HOP-92 NSCLC) | TGI (EKVX NSCLC) | TGI (M14 melanoma) | TGI (786-0 renal) | TGI (MOLT-4 leukemia) | TGI (U251 CNS) | TGI (NCI-H23 lung) | TGI (LOX IMVI melanoma) | TGI (OVCAR-4 ovarian) | TGI (COLO 205 colon) | TGI (SK-MEL-28 melanoma) | TGI (ACHN renal) | TGI (SK-MEL-2 melanoma) | TGI (OVCAR-3 ovarian) | TGI (SNB-19 CNS) | TGI (DMS 273 small cell lung) | TGI (NCI-H226 lung) | TGI (SF-268 CNS) | TGI (RXF 393 renal) | TGI (TK-10 renal) | TGI (UO-31 renal) | TGI (SF-295 CNS) | TGI (RPMI-8226 leukemia) | TGI (HCC-2998 colon) | TGI (HOP-62 NSCLC) | TGI (SN12C renal) | TGI (HT29 colon) | TGI (M19-MEL melanoma) | TGI (KM20L2 colon) | TGI (SK-OV-3 ovarian) | TGI (OVCAR-5 ovarian) | TGI (NCI-H460 lung) | TGI (A549 NSCLC) | TGI (LXFL 529 NSCLC) | TGI (KM12 colon) | TGI (HCT-15 colon) | TGI (K-562 leukemia) | TGI (SR leukemia)

Reference: PubChem BioAssay (NCI)
